From patent publication US20260365670A1, “EGFR INHIBITORS AND USES THEREOF” (DIZAL (JIANGSU) PHARMACEUTICAL CO., LTD., priority 2022, published 2026)
pIC50: −log10 of the molar value. Like-named read-outs stand apart in the source and are kept apart here.

Key:
[1] = test system: Ba/F3 cells expressing EGFR mutations; experiment: Cell proliferation assay, Ba/F3 cells expressing EGFR mutations (CellTiter-Glo, 72 hours); type: cell-based; settings: CellTiter-Glo
Method in brief: (§1)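 Seed Ba/F3 at 5000 cells/well and PC-9 at 500 cells/well (10% FBS RPMI1640); incubate overnight; add compound dilution series; read a G0 plate; incubate; read G3; GI50 from best-fit curve.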

EGFR Exon19Del = target: T1, EGFR Exon19Del (Homo sapiens, UniProt P00533, DEL746-750); experiment: Inhibition of EGFR Exon19Del biochemical enzymatic activity (HTRF); settings: EGFR Del19, 1 mM ATP, 1 h, room temperature, read-out: IC50 @Del19
T1 construct: purchased Carna Bio
Method in brief: (§2)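 Recombinant kinases phosphorylated 1 μM biotinylated TK substrate with 1 mM ATP in buffer with 5 mM MgCl2, 1 mM MnCl2, 0.01% CHAPS, 1 mM DTT, 0.5% DMSO. Reaction ran 1 h at room temperature, stopped with EDTA-containing detection mix. HTRF 665/615 nm ratio gave IC50 via four-parameter logistic fit.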

EGFR wild type = target: T2, EGFR wild type (Homo sapiens, UniProt P00533); experiment: Inhibition of EGFR wild type biochemical enzymatic activity (HTRF); settings: EGFR WT, 1 mM ATP, 1 h, room temperature, read-out: IC50 (nM) @WT
T2 construct: purchased Carna Bio
T2 sequence (P00533 25-1210): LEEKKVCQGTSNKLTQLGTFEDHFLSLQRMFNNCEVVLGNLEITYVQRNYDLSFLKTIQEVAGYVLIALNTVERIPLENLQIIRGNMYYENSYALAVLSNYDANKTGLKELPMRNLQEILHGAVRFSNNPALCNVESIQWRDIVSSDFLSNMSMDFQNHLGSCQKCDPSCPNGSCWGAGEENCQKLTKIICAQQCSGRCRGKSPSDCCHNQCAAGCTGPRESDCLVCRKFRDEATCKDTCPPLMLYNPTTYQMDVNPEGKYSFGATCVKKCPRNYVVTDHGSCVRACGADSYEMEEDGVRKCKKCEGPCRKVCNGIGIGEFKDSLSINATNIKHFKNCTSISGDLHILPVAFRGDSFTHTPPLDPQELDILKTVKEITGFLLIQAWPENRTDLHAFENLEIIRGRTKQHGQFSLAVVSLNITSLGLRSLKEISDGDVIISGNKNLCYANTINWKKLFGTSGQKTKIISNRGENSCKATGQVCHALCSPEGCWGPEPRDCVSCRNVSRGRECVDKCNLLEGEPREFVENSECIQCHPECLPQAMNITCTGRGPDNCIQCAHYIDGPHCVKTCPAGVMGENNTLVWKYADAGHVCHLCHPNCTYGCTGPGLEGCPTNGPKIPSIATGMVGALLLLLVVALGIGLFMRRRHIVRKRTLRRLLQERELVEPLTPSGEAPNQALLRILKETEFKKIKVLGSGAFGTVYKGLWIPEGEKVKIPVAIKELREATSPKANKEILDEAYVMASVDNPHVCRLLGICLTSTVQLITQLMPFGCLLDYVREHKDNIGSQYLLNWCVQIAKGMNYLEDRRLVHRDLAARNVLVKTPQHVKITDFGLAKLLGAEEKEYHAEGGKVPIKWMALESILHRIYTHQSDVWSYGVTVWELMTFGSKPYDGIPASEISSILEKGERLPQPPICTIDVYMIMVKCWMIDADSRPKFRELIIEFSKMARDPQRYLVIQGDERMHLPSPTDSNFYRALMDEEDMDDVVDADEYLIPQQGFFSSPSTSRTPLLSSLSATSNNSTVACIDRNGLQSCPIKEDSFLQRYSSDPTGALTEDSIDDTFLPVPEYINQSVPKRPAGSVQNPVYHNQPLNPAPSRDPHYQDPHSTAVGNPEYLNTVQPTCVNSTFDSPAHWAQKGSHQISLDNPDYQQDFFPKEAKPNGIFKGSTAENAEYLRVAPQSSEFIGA
Method in brief: as §2

A-431 = experiment: Cell proliferation GI50, A-431 cells (Table 6); type: cell-based
EGFR[T790M/C797S/L858R] = target: T3, EGFR[T790M/C797S/L858R] (Homo sapiens, UniProt P00533, C797S/L858R/T790M); experiment: Inhibition of EGFR[T790M/C797S/L858R] biochemical enzymatic activity (HTRF); settings: EGFR T790M-C797S-L858R, 1 mM ATP, 1 h, room temperature, read-out: IC50 (nM) @T790M- C797S - L858R
T3 construct: purchased Carna Bio
T3 sequence (P00533 25-1210 T790M/C797S/L858R): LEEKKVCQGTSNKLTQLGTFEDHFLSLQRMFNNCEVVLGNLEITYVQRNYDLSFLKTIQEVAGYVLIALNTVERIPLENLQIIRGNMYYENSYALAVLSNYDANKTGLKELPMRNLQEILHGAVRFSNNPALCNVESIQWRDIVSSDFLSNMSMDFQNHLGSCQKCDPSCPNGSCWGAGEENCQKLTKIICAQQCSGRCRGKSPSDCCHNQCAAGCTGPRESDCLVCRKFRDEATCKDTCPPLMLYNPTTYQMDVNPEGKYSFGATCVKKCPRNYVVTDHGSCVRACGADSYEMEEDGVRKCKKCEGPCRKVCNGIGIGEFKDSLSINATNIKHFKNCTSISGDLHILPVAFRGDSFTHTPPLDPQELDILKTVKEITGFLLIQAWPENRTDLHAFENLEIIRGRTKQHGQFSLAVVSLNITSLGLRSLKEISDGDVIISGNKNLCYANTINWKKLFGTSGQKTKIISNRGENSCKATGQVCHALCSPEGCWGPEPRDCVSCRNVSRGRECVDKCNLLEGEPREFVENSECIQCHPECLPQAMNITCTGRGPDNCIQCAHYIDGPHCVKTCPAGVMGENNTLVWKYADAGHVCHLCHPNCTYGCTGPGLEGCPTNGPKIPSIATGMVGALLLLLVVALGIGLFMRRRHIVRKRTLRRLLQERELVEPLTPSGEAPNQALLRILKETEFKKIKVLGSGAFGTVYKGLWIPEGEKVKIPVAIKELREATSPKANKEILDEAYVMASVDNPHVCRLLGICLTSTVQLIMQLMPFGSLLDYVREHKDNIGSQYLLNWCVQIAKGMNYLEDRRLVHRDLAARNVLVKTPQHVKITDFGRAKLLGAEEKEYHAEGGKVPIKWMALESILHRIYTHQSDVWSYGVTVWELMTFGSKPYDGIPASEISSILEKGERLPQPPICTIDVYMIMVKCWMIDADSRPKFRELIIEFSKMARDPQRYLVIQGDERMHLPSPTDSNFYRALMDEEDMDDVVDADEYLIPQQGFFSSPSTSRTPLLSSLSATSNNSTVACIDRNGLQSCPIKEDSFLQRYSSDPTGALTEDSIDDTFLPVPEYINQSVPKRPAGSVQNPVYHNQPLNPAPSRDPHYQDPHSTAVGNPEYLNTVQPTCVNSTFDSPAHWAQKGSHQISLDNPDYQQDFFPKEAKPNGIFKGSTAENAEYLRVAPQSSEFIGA
Method in brief: as §2

EGFR Exon19Del/T790M = target: T4, EGFR Exon19Del/T790M (Homo sapiens, UniProt P00533, DEL746-750/T790M); experiment: Inhibition of EGFR Exon19Del/T790M biochemical enzymatic activity (HTRF); settings: EGFR Del19-T790M, 1 mM ATP, 1 h, room temperature, read-out: IC50 (nM) @Del19-T790M
T4 construct: purchased Carna Bio
Method in brief: as §2

EGFR L858R = target: T5, EGFR L858R (Homo sapiens, UniProt P00533, L858R); experiment: Inhibition of EGFR L858R biochemical enzymatic activity (HTRF); settings: 1 mM ATP, 1 h, room temperature, read-out: IC50 (nM) @L858R
T5 construct: purchased Carna Bio
Method in brief: as §2

[2] = target: T6, EGFR[T790M/C797S/d746-750] (Homo sapiens, UniProt P00533, C797S/DEL746-750/T790M); experiment: Inhibition of EGFR[T790M/C797S/d746-750] biochemical enzymatic activity (HTRF); settings: EGFR T790M-C797S-Del19, 1 mM ATP, 1 h, room temperature, read-out: IC50 (nM) @T790M - C797S - Del19
T6 construct: purchased Carna Bio
Method in brief: as §2

EGFR L858R/T790M = target: T7, EGFR L858R/T790M (Homo sapiens, UniProt P00533, L858R/T790M); experiment: Inhibition of EGFR L858R/T790M biochemical enzymatic activity (HTRF); settings: EGFR L858R-T790M, 1 mM ATP, 1 h, room temperature, read-out: IC50 (nM) @L858R-T790M
T7 construct: purchased Carna Bio
T7 sequence (P00533 25-1210 T790M/L858R): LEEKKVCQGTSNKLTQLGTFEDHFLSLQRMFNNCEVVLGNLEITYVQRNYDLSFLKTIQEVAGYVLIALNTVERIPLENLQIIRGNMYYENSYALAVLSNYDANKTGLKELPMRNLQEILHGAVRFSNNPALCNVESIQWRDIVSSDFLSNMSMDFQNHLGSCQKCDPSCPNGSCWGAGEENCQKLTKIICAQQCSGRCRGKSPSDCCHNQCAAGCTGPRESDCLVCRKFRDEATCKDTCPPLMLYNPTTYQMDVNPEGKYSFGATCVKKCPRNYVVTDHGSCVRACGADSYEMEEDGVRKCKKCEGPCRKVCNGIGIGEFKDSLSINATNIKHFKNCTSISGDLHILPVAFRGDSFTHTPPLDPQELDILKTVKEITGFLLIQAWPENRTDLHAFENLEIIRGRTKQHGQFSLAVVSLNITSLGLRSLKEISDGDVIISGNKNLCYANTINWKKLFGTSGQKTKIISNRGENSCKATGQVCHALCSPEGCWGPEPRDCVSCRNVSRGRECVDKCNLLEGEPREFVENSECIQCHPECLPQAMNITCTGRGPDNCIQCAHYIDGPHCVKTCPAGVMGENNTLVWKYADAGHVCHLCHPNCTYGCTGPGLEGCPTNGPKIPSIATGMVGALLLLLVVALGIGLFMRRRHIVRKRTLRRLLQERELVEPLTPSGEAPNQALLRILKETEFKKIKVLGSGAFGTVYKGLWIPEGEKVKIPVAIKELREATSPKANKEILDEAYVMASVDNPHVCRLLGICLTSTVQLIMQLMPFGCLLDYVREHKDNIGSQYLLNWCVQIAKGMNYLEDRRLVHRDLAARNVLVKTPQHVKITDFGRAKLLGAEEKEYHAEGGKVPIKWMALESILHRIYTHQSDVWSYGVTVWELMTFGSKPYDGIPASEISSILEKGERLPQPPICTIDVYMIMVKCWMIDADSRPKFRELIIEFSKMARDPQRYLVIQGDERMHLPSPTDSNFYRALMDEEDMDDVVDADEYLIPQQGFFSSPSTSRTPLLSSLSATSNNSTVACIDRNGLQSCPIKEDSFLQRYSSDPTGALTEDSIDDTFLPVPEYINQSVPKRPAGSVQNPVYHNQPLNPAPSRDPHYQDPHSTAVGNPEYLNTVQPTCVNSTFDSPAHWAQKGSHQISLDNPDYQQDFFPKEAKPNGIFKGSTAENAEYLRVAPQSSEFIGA
Method in brief: as §2

EGFR (C797S L858R) = target: T8, EGFR (C797S L858R) (Homo sapiens, UniProt P00533, C797S/L858R); experiment: Inhibition of EGFR (C797S L858R) biochemical enzymatic activity (HTRF); settings: EGFR L858-C797S, 1 mM ATP, 1 h, room temperature, read-out: IC50 (nM) @L858-C797S
T8 construct: purchased signalchem
T8 sequence (P00533 25-1210 C797S/L858R): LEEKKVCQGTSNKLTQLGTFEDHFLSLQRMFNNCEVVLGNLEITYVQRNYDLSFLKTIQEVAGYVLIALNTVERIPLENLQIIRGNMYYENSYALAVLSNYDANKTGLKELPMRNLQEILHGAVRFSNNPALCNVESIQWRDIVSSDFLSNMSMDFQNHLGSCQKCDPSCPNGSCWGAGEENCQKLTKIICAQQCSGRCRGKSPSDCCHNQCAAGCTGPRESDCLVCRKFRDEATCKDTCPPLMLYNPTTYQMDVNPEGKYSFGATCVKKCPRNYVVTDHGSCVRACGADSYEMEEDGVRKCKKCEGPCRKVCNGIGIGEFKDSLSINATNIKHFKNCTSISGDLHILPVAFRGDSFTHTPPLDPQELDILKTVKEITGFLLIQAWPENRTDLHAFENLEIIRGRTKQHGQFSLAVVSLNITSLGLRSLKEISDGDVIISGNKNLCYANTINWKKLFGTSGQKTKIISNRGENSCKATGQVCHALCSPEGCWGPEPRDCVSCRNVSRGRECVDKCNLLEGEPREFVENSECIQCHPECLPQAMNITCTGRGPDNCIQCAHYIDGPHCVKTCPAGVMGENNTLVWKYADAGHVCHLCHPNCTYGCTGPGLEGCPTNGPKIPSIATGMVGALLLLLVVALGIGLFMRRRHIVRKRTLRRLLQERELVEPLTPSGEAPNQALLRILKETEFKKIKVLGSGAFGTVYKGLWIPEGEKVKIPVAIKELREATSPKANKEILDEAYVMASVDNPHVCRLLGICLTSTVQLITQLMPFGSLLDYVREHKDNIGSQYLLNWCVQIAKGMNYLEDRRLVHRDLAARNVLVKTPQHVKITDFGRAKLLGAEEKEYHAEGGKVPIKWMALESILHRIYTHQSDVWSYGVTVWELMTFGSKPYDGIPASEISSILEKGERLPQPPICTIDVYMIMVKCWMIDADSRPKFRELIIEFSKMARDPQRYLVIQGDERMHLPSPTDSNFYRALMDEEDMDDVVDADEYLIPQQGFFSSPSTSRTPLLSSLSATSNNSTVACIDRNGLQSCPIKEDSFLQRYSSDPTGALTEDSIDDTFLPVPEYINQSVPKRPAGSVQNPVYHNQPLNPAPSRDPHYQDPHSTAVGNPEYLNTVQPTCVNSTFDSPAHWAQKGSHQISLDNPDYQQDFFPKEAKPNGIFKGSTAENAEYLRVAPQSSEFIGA
Method in brief: as §2

EGFR (d746-750 C797S) = target: T9, EGFR (d746-750 C797S) (Homo sapiens, UniProt P00533, C797S/DEL746-750); experiment: Inhibition of EGFR (d746-750 C797S) biochemical enzymatic activity (HTRF); settings: EGFR Del19-C797S, 1 mM ATP, 1 h, room temperature, read-out: IC50 (nM) @Del19-C797S
T9 construct: purchased signalchem
Method in brief: as §2

PC-9 = experiment: Cell proliferation assay, PC-9 cells (CellTiter-Glo, 72 hours); type: cell-based; settings: PC9 cells, CellTiter-Glo, read-out: PC9 GI50
Method in brief: as §1

[3] = BaF3 cells, EGFR DEL19-C797S, read-out: DEL19-C797S/BaF3 GI50
[4] = BaF3 cells, EGFR DEL19-T790-C797S, read-out: DEL19-T790-C797S/BaF3 GI50
[5] = BaF3 cells, EGFR L858R, read-out: L858R/BaF3 GI50
[6] = BaF3 cells, EGFR L858R-C797S, read-out: L858R-C797S/BaF3 GI50
[7] = BaF3 cells, EGFR L858R-T790-C797S, read-out: L858R-T790-C797S/BaF3 GI50
[8] = BaF3 cells, EGFR L858R-T790M, read-out: L858R-T790M/BaF3 GI50
[9] = EGFR DEL19-T790M, read-out: DEL19-T790M GI50
[10] = Homo sapiens, A-431, A-431 cells
[11] = Mus musculus, BaF3, 72 h, BaF3 cells, EGFR DEL19-C797S, read-out: DEL19-C797S/BaF3 GI50
[12] = Mus musculus, BaF3, 72 h, BaF3 cells, EGFR DEL19-T790-C797S, read-out: DEL19-T790-C797S/BaF3 GI50
[13] = Mus musculus, BaF3, 72 h, BaF3 cells, EGFR L858R, read-out: L858R/BaF3 GI50
[14] = Mus musculus, BaF3, 72 h, BaF3 cells, EGFR L858R-C797S, read-out: L858R-C797S/BaF3 GI50
[15] = Mus musculus, BaF3, 72 h, BaF3 cells, EGFR L858R-T790-C797S, read-out: L858R-T790-C797S/BaF3 GI50
[16] = Mus musculus, BaF3, 72 h, BaF3 cells, EGFR L858R-T790M, read-out: L858R-T790M/BaF3 GI50
[17] = Mus musculus, BaF3, 72 h, EGFR DEL19-T790M, read-out: DEL19-T790M GI50

GI50 [1, 3] | GI50 [1, 4] | GI50 [1, 5] | GI50 [1, 6] | GI50 [1, 7] | GI50 [1, 8] | GI50 [1, 9] | pIC50 (EGFR Exon19Del) | IC50 (EGFR wild type) | GI50 (A-431; A-431 cells) | IC50 (EGFR[T790M/C797S/L858R]) | IC50 (EGFR Exon19Del/T790M) | IC50 (EGFR L858R) | IC50 [2] | IC50 (EGFR L858R/T790M) | IC50 (EGFR (C797S L858R)) | IC50 (EGFR (d746-750 C797S)) | GI50 (PC-9) | GI50 (A-431; [10]) | other results | SMILES
98 nM | 232 nM | 311 nM | 190 nM | 362 nM | 402 nM | 171 nM | 6.65 | > 5000 nM | 3990 nM | > 5000 nM | > 5000 nM | 830 nM | > 5000 nM | > 5000 nM | 1180 nM | 258 nM | 214 nM | – | – | CN(C)C1CN(c2ccc3nc4n(c3c2)C23CCC(CN(CCOc5c(cnn5C)-c5cc(cn(C)c5=O)C(=O)N4)C2)C3)CC1F (single isomer, unassigned) [Example A84A, 15,21-Dimethyl-5-[4-fluoro-3-(N,N-dimethylamino)pyrrolidinyl]-23-oxa-2,9,11,15,20,21,26-heptaazaheptacyclo[24.4.1.1^{1,28}.1^{13,17}.0^{2,10}.0^{3,8}.0^{18,22}]tritriaconta-3,5,7,9,13,17(33),18(22),19-octaene-12,16-dione]
0.67 nM | 2.1 nM | 2.4 nM | 3.6 nM | 2.2 nM | 11 nM | 1.9 nM | 8.72 | 62 nM | – | 3.2 nM | 2.8 nM | 7.9 nM | 2.9 nM | 2.6 nM | 8.1 nM | 1.7 nM | 6.1 nM | 815 nM | – | CN(C)[C@H]1CCN(c2ccc3nc4n(c3c2)C23CCC(CN(CCOc5c(cnn5C)-c5cc(cn(C)c5=O)C(=O)N4)C2)C3)C1 (single isomer, unassigned) [Example A66B]
0.74 nM | 6.8 nM | 12 nM | 8.2 nM | 12 nM | 19 nM | 6.9 nM | 8.21 | 937 nM | 1010 nM | 6.6 nM | 8.5 nM | 53 nM | 5.9 nM | 13 nM | 33 nM | 4.5 nM | 21 nM | – | – | Cn1ncc2c1OCCN1CC3CCC(C3)(C1)n1c(nc3ccc(N4CCC(N5CCOCC5)C4)cc31)NC(=O)c1cc-2c(=O)n(C)c1 (single isomer, unassigned) [Example A104B]
103 nM | 178 nM | 135 nM | 165 nM | 280 nM | 367 nM | 115 nM | 6.60 | > 5000 nM | 6390 nM | > 5000 nM | > 5000 nM | 3600 nM | > 5000 nM | > 5000 nM | > 5000 nM | 573 nM | 791 nM | – | – | CN(C)CCCN(C)c1ccc2nc3n(c2c1)C12CCC(CN(CCOc4c(cnn4C)-c4cc(cn(C)c4=O)C(=O)N3)C1)C2 (single isomer, unassigned) [Example A89A]
– | – | – | – | – | – | – | 7.01 | > 5000 nM | – | 2950 nM | 25 nM | 2500 nM | 26 nM | 3520 nM | 1760 nM | 120 nM | – | 6000 nM | GI50 [1, 11]: 27 nM; GI50 [1, 12]: 56 nM; GI50 [1, 13]: 142 nM; GI50 [1, 14]: 160 nM; GI50 [1, 15]: 129 nM; GI50 [1, 16]: 535 nM; GI50 [1, 17]: 78 nM; GI50 (PC-9; Homo sapiens, PC-9, 72 h): 144 nM | Cn1ncc2c1OCCN1CC3CCC(CC3)(C1)n1c(nc3ccccc31)NC(=O)c1cc-2c(=O)n(C)c1 [Example A100, 15,21-Dimethyl-23-oxa-2,9,11,15,20,21,26-heptaazaheptacyclo[26.2.2.1^{1,26}.1^{13,17}.0^{2,10}.0^{3,8}.0^{18,22}]tetratriaconta-3,5,7,9,13,17(34),18(22),19-octaene-12,16-dione]
– | – | – | – | – | – | – | 7.92 | 104 nM | – | 8.5 nM | 9.3 nM | 13 nM | 8.9 nM | 12 nM | 10 nM | 6.7 nM | – | 1290 nM | GI50 [1, 11]: 16 nM; GI50 [1, 12]: 124 nM; GI50 [1, 13]: 9.7 nM; GI50 [1, 14]: 11 nM; GI50 [1, 15]: 22 nM; GI50 [1, 16]: 30 nM; GI50 [1, 17]: 128 nM; GI50 (PC-9; Homo sapiens, PC-9, 72 h): 236 nM | CN1CCN(c2ccc3nc4n(c3c2)CCN(CC(F)(F)F)CCOc2c(cnn2C)-c2cc(cn(C)c2=O)C(=O)N4)CC1 [Example A3, 5,26-Dimethyl-16-(4-methylpiperazin-1-yl)-10-(2,2,2-trifluoroethyl)-7-oxa-4,5,10,13,20,22,26-heptaazapentacyclo[22.3.1.0^{2,6}.0^{13,21}.0^{14,19}]octacosa-1(28),2(6),3,14,16,18,20,24-octaene-23,27-dione]
0.77 nM | 13 nM | 14 nM | 16 nM | 31 nM | 40 nM | 14 nM | 8.51 | 196 nM | 1770 nM | 4.4 nM | 3.9 nM | 21 nM | 3.3 nM | 4.6 nM | 9.8 nM | 2.4 nM | 29 nM | – | – | CN(C)C1CN(c2ccc3nc4n(c3c2)C23CCC(CN(CCOc5c(cnn5C)-c5cc(cn(C)c5=O)C(=O)N4)C2)C3)CC1F (single isomer, unassigned) [Example A84D, 15,21-Dimethyl-5-[4-fluoro-3-(N,N-dimethylamino)pyrrolidinyl]-23-oxa-2,9,11,15,20,21,26-heptaazaheptacyclo[24.4.1.1^{1,28}.1^{13,17}.0^{2,10}.0^{3,8}.0^{18,22}]tritriaconta-3,5,7,9,13,17(33),18(22),19-octaene-12,16-dione]
